Experimental findings from patent publication US20260207621A1 (Vividion Therapeutics, Inc., priority 2022, published 2026) are described below.

For one test, the system named is Nrf2. Description: Nrf2 antagonism assay: ARE luciferase reporter in KYSE-70 cells. The conditions noted are these: Homo sapiens, KYSE-70, KYSE-70 cells, positive Imax corresponds to Nrf2 antagonism, read-out: KYSE70 Cellular ARE Luciferase Imax (%). The format is cell-based. Put shortly:
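Dose-response curves give IC50 and Imax, with positive Imax read as Nrf2 antagonism, i.e. reduced luciferase signal. Reporter cells are Nrf2-high KYSE-70 (Nrf2 W24C mutant) bearing ARE-controlled luciferase. Antagonists are proposed to act at KEAP1 C151, speeding Nrf2 degradation.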

The target in a further test is T1, KEAP1 C151 (Homo sapiens, UniProt Q14145).
T1 construct: treating 500 μg of cell lysate generated from MDA-MB-468 breast cancer cells with DMSO or compound; endogenous in cells; host or cells: MDA-MB-468 breast cancer cell lysate
T1 sequence (Q14145 whole entry): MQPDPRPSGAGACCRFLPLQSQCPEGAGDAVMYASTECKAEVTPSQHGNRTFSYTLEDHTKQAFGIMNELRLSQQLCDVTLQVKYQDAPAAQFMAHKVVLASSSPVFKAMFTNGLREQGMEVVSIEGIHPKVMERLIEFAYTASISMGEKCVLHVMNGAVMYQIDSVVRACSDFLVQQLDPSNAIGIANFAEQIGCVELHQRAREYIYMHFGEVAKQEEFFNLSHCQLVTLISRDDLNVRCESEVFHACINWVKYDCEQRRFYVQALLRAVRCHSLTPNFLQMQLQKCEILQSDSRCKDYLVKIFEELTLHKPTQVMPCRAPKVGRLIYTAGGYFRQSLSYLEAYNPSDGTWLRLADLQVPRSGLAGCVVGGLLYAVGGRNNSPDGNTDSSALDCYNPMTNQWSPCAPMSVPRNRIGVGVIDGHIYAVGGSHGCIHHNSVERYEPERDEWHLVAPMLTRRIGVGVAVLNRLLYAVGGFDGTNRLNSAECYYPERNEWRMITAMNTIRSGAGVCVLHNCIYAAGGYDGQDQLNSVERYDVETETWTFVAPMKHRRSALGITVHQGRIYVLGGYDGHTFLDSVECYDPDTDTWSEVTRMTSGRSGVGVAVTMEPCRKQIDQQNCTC
Description: Nrf2 TMT measurement: in vitro TE50 for KEAP1 C151 (IA-DTB competition, targeted TMT mass spectrometry) in MDA-MB-468 cell lysate. The format is binding. The conditions noted are these: in vitro target engagement of KEAP1 C151, targeted TMT, read-out: KEAP1_C151 TE50. Put shortly: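 Occupancy of KEAP1 C151 measured as loss of IA-DTB labeling (200 μM, 1 h, room temperature) after 1 h compound pre-treatment of MDA-MB-468 cell lysate.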

As for `C=CC(=O)N1CCOC[C@H]1c1cc(Cl)cc(-c2cnc(OC)c(N)n2)c1` (single isomer, unassigned) [Compound 259], the Emax in the test on Nrf2 was 93%. For the same molecule, the IC50 at KEAP1 C151 worked out at 140 nM.

With `C=CC(=O)N1CCOC[C@H]1c1cc(Cl)cc(-c2ncc(F)c(N)n2)c1` (single isomer, unassigned) [Compound 263], the Emax in the test on Nrf2 is 93%. The IC50 on KEAP1 C151 turned out to be 19 nM.

Turning to `C=CC(=O)N1CC[C@@](C)(O)C[C@@H]1c1cc(Cl)cc(-c2ncc(N)cn2)c1` (single isomer, unassigned) [Compound 264], the Emax in the test with Nrf2 was 86%. Moreover, the IC50 at KEAP1 C151 was found to be 160 nM.

Regarding `C=CC(=O)N1CC[C@](C)(O)C[C@H]1c1cc(Cl)cc(-c2ncc(N)cn2)c1` (single isomer, unassigned) [Compound 265], in the test with Nrf2, the Emax was determined as 51%. Also, the IC50 on KEAP1 C151 was 11200 nM.

`C=CC(=O)N1CC[C@](C)(O)C[C@@H]1c1cc(Cl)cc(-c2ncc(N)cn2)c1` (single isomer, unassigned) [Compound 266]: the Emax with Nrf2 was determined as 90%. Further, the IC50 on KEAP1 C151 amounted to 320 nM.

As for `C=CC(=O)N1CC2(CC2)N(C(=O)C2CC2)CC1c1cc(Cl)cc(-c2ncc(N)cn2)c1` (single isomer, unassigned) [Compound 267], the Emax in the test with Nrf2 was 94%. Moreover, the IC50 on KEAP1 C151 was determined as 10 nM.

`C=CC(=O)N1CCOC[C@H]1c1cc(Cl)cc(-c2nc(Cl)ncc2N)c1` (single isomer, unassigned) [Compound 268]: the Emax in the test on Nrf2 is 53%. For the same molecule, the IC50 at KEAP1 C151 was determined as 490 nM.

As for `C=CC(=O)N1CCOC[C@H]1c1cc(Cl)cc(-c2c[nH]nn2)c1` (single isomer, unassigned) [Compound 269], the Emax with Nrf2 was found to be 72%. The IC50 on KEAP1 C151 was found to be 950 nM.

Regarding `C=CC(=O)N1CCOC[C@H]1c1cc(Cl)cc(-c2cc(N)nc(Cl)n2)c1` (single isomer, unassigned) [Compound 271], the Emax with Nrf2 stood at 93%. In addition, the IC50 at KEAP1 C151 is 59 nM.

Regarding `C=CC(=O)N1CCOC[C@H]1c1cc(Cl)cc(-c2ncc(N)c(F)n2)c1` (single isomer, unassigned) [Compound 278], the Emax with Nrf2 was determined as 87%. The IC50 at KEAP1 C151 turned out to be 6.1 nM.

In the case of `C=CC(=O)N1CCOC[C@H]1c1cc(Cl)cc(-c2cnc(F)c(N)n2)c1` (single isomer, unassigned) [Compound 279], the Emax in the test with Nrf2 was determined as 92%. Moreover, the IC50 on KEAP1 C151 was found to be 45 nM.

In the case of `C=CC(=O)N1CCOC[C@H]1c1cc(Cl)cc(-c2nc(N)cnc2F)c1` (single isomer, unassigned) [Compound 280], the Emax in the test with Nrf2 was 90%. Besides, at KEAP1 C151, the IC50 was found to be 32 nM.

With `C=CC(=O)N1CCC(F)(F)CC1c1cc(Cl)cc(-c2ccnc(C)n2)c1` (single isomer, unassigned) [Compound 281, 1-(2-(3-chloro-5-(2-methylpyrimidin-4-yl)phenyl)-4,4-difluoropiperidin-1-yl)prop-2-en-1-on], in the test with Nrf2, the Emax was found to be 84%. Besides, the IC50 on KEAP1 C151 was found to be 61 nM.

For the molecule `C=CC(=O)N1CCOC[C@H]1c1cc(Cl)cc(-c2cc(N)nc(F)n2)c1` (single isomer, unassigned) [Compound 283], the Emax in the test on Nrf2 was found to be 94%. The IC50 on KEAP1 C151 is 18 nM.

As for `C=CC(=O)N1CCC(F)(F)CC1c1cc(Cl)cc(-c2ccnc(N)n2)c1` (single isomer, unassigned) [Compound 284, 1-(2-(3-(2-aminopyrimidin-4-yl)-5-chlorophenyl)-4,4-difluoropiperidin-1-yl)prop-2-en-1-one], the Emax with Nrf2 turned out to be 94%. Also, the IC50 on KEAP1 C151 stood at 83 nM.

Turning to `C=CC(=O)N1CCC(F)(F)CC1c1cc(Cl)cc(-c2cc(C)ncn2)c1` (single isomer, unassigned) [Compound 285, 1-(2-(3-chloro-5-(6-methylpyrimidin-4-yl)phenyl)-4,4-difluoropiperidin-1-yl)prop-2-en-1-one], the Emax in the test with Nrf2 came out at 83%. The IC50 on KEAP1 C151 came to 22 nM.

On to `C=CC(=O)N1CC(C)(C)OC[C@H]1c1cc(Cl)cc(-c2cnc(N)c(N)n2)c1` (single isomer, unassigned) [Compound 286], for which the Emax in the test on Nrf2 is 96%. Further, the IC50 at KEAP1 C151 turned out to be 32 nM.

Regarding `C=CC(=O)N1CC(C)(C)OC[C@H]1c1cc(Cl)cc(-c2ncc(N)c(N)n2)c1` (single isomer, unassigned) [Compound 287], in the test with Nrf2, the Emax is 96%. The IC50 at KEAP1 C151 came out at 110 nM.

Consider `C=CC(=O)N1[C@H](c2cc(Cl)cc(-c3ccnc(N)n3)c2)COC[C@H]1C(F)F` (single isomer, unassigned) [Compound 290], for which the Emax in the test on Nrf2 was found to be 93%. For the same molecule, the IC50 at KEAP1 C151 stood at 15 nM.

Regarding `C=CC(=O)N1[C@H](c2cc(Cl)cc(-c3ncc(N)cn3)c2)COC[C@H]1C(F)F` (single isomer, unassigned) [Compound 291], the Emax in the test on Nrf2 was 93%. Moreover, the IC50 on KEAP1 C151 was below 6.4 nM.

For the molecule `C=C(Cl)C(=O)N1CCOC[C@H]1c1cc(Cl)cc(-c2ncnc(N)n2)c1` (single isomer, unassigned) [Compound 294], the Emax in the test with Nrf2 was 91%. Besides, on KEAP1 C151, the IC50 is 1380 nM.

Consider `C=C(C(=O)N1CCOC[C@H]1c1cc(Cl)cc(-c2ncnc(N)n2)c1)C(F)(F)F` (single isomer, unassigned) [Compound 295], for which the Emax in the test with Nrf2 is 88%. In addition, the IC50 on KEAP1 C151 is 200 nM.

Consider `C=CC(=O)N1CCOC[C@H]1c1cc(Cl)cc(-c2cc3[nH]ccc3cn2)c1` (single isomer, unassigned) [Compound 296], for which the Emax in the test with Nrf2 is 96%. On KEAP1 C151, the IC50 stood at 36 nM.

Regarding `C=CC(=O)N1CCOC[C@H]1c1cc(Cl)cc(-c2cc(C(N)=O)ccn2)c1` (single isomer, unassigned) [Compound 298], in the test with Nrf2, the Emax amounted to 94%. Also, the IC50 on KEAP1 C151 was found to be 32 nM.

Take `C=CC(=O)N1CCOC[C@H]1c1cc(Cl)cc(-c2c[nH]c(N)n2)c1` [Compound 193, (R)-1-(3-(3-(2-amino-1H-imidazol-4-yl)-5-chlorophenyl)morpholino)prop-2-en-1-one]: in the test on Nrf2, the Emax is 91%. Besides, the IC50 on KEAP1 C151 turned out to be 97 nM.

For the molecule `C=CC(=O)N1CCOC[C@H]1c1cc(Cl)cc(-n2cnc(N)n2)c1` [Compound 215, (R)-1-(3-(3-(3-amino-1H-1,2,4-triazol-1-yl)-5-chlorophenyl)morpholino)prop-2-en-1-one], the Emax in the test on Nrf2 turned out to be 65%. Besides, the IC50 on KEAP1 C151 is 350 nM.

For the molecule `C=CC(=O)N1CCOC[C@H]1c1cc(Cl)cc(-c2ncc(N)c(N)n2)c1` [Compound 253, (R)-1-(3-(3-chloro-5-(4,5-diaminopyrimidin-2-yl)phenyl)morpholino)prop-2-en-1-one], the Emax in the test on Nrf2 amounted to 93%. Further, at KEAP1 C151, the IC50 turned out to be 50 nM.

As to `C=CC(=O)N1CCOC[C@H]1c1cc(Cl)cc(-c2ncc(OC)c(N)n2)c1` [Compound 261, (R)-1-(3-(3-(4-amino-5-methoxypyrimidin-2-yl)-5-chlorophenyl)morpholino)prop-2-en-1-one], the Emax in the test with Nrf2 was 95%. The IC50 on KEAP1 C151 worked out at 19 nM.

As for `C=CC(=O)N1CCOC[C@H]1c1cc(Cl)cc(-c2cnc(N)c(F)n2)c1` [Compound 289, (R)-1-(3-(3-(5-amino-6-fluoropyrazin-2-yl)-5-chlorophenyl)morpholino)prop-2-en-1-one], the Emax in the test with Nrf2 worked out at 95%. Further, on KEAP1 C151, the IC50 was below 6.4 nM.
